Read-outs that look alike come from different tables or passages of the source.
Experiments:
[1] = system: guinea pig ileum; assay: antispasmodic activity against contractions of guinea pig ileum induced by histamine and acetylcholine; conditions: Cavia porcellus
Description: The antispasmodic activity of the products according to the invention was tested against contractions of guinea pig ileum, such as induced by histamine and acetylcholine. These tests allow to reveal an antihistaminic activity, an anticholinergic activity or a musculotropic antispasmodic activity. The response to the contracting agent (submaximum concentration)was repeated every 5 minutes before and after injection of increasing doses of the tested products (10^-8 to 10^-5 M). The various doses were added at intervals of 20 minutes or of the time necessary to the development of the maximum effect.
The percentage of inhibition under the influence of tested products was calculated and the theoretical concentration ensuring 50% inhibition was graphically determined for each experience. These values were expressed as -log IC50 (M). The standard value for papaverine was 4.50, namely an effective concentration of 30 μM.

[2] = system: femoral arterial circulation; assay: peripheral vasodilator activity on anaesthetized dog, femoral arterial perfusion pressure; format: in vivo; conditions: 30 μg/kg injected in femoral perfusion (some also at other doses); in words
Description: The peripheral vasodilator activity of the products according to the invention was measured on anaesthetized dog at the level of the femoral arterial circulation. To this end, the femoral artery the collaterals of which were ligaturated was perfused with a constant flow rate of blood taken from aorta. Thus the perfusion pressure measured at the level of the femoral artery, varied as a function of the resistance of perfused area. The tested products and the corresponding solvents were directly injected in the system at the dose of 30 μg/kg. The blood circulation rate being maintained constant, a vasodilation was thus measured by a decrease of the perfusion pressure. The latter is rated in comparison with the action of papaverine considered as standard and injected once per group of 4 products.
When being of interest, the products were tested at other doses under the same conditions. The vasodilation activity was rated as follows:
+: 1/3 of the papaverine activity
++: 2/3 of the papaverine activity
+++: activity equal to that of papaverine (i.e. 30 to 40 mm Hg)
++++: activity higher than that of papaverine.

[3] = system: spontaneously hypertensive rats; assay: antihypertensive activity, oral administration to non-anesthetized spontaneously hypertensive rats, systolic arterial pressure (plethysmographic); format: in vivo, rat; conditions: for antihypertensive activity: 60 mgr/kg oral (some also at other doses), in words; for antihypertensive effect (rating): oral
Description: Their antihypertensive activity was tested by oral administration to non-anesthetized, spontaneously hypertensive rats, on which the systolic arterial pressure is measured at the level of the median coccygeal artery by means of a plethysmographic method (J. Roba, G. Lambelin, A. F. De Schaepdryver, Arch. int. Pharmacodyn., 200, 182, 1972). The arterial pressure was measured every 30 minutes from two hours before to three hours after oral administration of 60 mgr/kg of the tested products or of a placebo (1% tragacanth gum mucilage). When being of interest, the products were tested at other doses under similar conditions. Only rats having a systolic pressure of 180 to 220 mm Hg were used. Two rats were used for each product. The treatments were made without the knowledge of the person making the measures. The antihypertensive effects were rated as follows:
+: reduction of 10 to 20 mm Hg
++: reduction of 20 to 30 mm Hg
+++: reduction of 30 to 50 mm Hg
++++: reduction >50 mm Hg

[4] = 50% inhibition of contractions, converted from -log IC50, read-out: effective concentration / concentration corresponding to -log IC50 (converted)
[5] = contractions induced by histamine and acetylcholine, 10^-8 to 10^-5 M, read-out: -log IC50 (M), antispasmodic activity (converted)
[6] = read-out: -log IC50 (M), antispasmodic activity (converted)
[7] = read-out: effective concentration / concentration corresponding to -log IC50 (converted)

SMILES	IC50 [1, 4] [M]	IC50 [1, 5] [M]	peripheral vasodilator activity (compared with papaverine) [2]	antihypertensive activity [3]	also measured
CCCCCCCCN[C@@H](C)[C@@H](OC(=O)C1CCCCC1)c1ccc(SC(C)C)cc1 (relative stereo) [Compound 29]	< 1e-06	< 1e-06			
CCCCCCCCNC(C)C(OC(=O)CC)c1ccc(SC(C)C)cc1 (stereo not shown) [Compound 2]	< 1e-06	< 1e-06			
CCCCCCCCNC(C)C(OC(=O)C(C)C)c1ccc(SC(C)C)cc1 (stereo not shown) [Compound 4]	< 1e-06	< 1e-06	at least equal to that of papaverine		
CCCCCCCCNC(C)C(OC(=O)CCC)c1ccc(SC(C)C)cc1.Cl (stereo not shown) [Compound 6, 1-Butyryloxy-1-(4-isopropylthiophenyl)-2-n-octylaminopropane hydrochloride]	< 1e-06	< 1e-06	at least equal to that of papaverine		
CCCCCCCCNC(C)C(OC(=O)C1CCCCC1)c1ccc(SC(C)C)cc1 (stereo not shown) [Compound 7]				suitable antihypertensive activity	
CCCCCCCCNC(C)C(OC(=O)C1CCCC1)c1ccc(SC(C)C)cc1 (stereo not shown) [Compound 8]				suitable antihypertensive activity	
CCCCCCCCNC(C)C(OC(=O)C1CCC1)c1ccc(SC(C)C)cc1 (stereo not shown) [Compound 9]	< 1e-06	< 1e-06	at least equal to that of papaverine		
CC(C)Sc1ccc(C(OC(=O)C2CCC2)C(C)NCCCCc2ccccc2)cc1 (stereo not shown) [Compound 10]	< 1e-06	< 1e-06		suitable antihypertensive activity	
CCCCCCCCNC(C)C(OC(=O)CC)c1ccc(SC2CCCCC2)cc1 (stereo not shown) [Compound 11]	< 1e-06	< 1e-06			
CCCCCCCCNC(C)C(OC(C)=O)c1ccc(SC2CCCC2)cc1 (stereo not shown) [Compound 15]			at least equal to that of papaverine		IC50 [1, 6]: < 1e-06 M; IC50 [1, 7]: < 1e-06 M
CCCCCCCCNC(C)C(OC(C)=O)c1ccc(OC(C)C)cc1 (stereo not shown) [Compound 18, 1-acetyloxy-1-(4-isopropyloxyphenyl)-2-n.octylaminopropane]			at least equal to that of papaverine	suitable antihypertensive activity	IC50 [1, 6]: < 1e-06 M; IC50 [1, 7]: < 1e-06 M
CCCCCCCCNC(C)C(OC(=O)C(C)C)c1ccc(OCCCC)cc1 (stereo not shown) [Compound 19, 1-(p-n-Butyloxyphenyl)-1-sec-butyryloxy-2-n-octylaminopropane]				suitable antihypertensive activity	
CC(C)Oc1ccc(C(OC(=O)C2CCCCC2)C(C)NCCCCc2ccccc2)cc1 (stereo not shown) [Compound 20]	< 1e-06	< 1e-06	at least equal to that of papaverine	suitable antihypertensive activity	
CC(C)Sc1ccc(C(OC(=O)C(C)C)C(C)NCCOc2ccccc2)cc1 (stereo not shown) [Compound 22]	< 1e-06	< 1e-06			
CCCC(=O)OC(c1ccc(SC(C)C)cc1)C(C)NCCCCc1ccccc1 (stereo not shown) [Compound 23]	< 1e-06	< 1e-06	at least equal to that of papaverine		
CCCC(=O)OC(c1ccc(SC(C)C)cc1)C(C)NCCOc1ccccc1 (stereo not shown) [Compound 24]	< 1e-06	< 1e-06		suitable antihypertensive activity	
CC(=O)OC(c1ccc(SC(C)C)cc1)C(C)NCCOc1ccccc1 (stereo not shown) [Compound 25]				suitable antihypertensive activity	
CC(C)Sc1ccc(C(OC(=O)C(C)C)C(C)NCCCCc2ccccc2)cc1 (stereo not shown) [Compound 26]	< 1e-06	< 1e-06	at least equal to that of papaverine		
CC(=O)OC(c1ccc(SC(C)C)cc1)C(C)NCCCCc1ccccc1 (stereo not shown) [Compound 27]			at least equal to that of papaverine	suitable antihypertensive activity	IC50 [1, 6]: < 1e-06 M; IC50 [1, 7]: < 1e-06 M

SMILES	IC50 [1, 4] [M]	IC50 [1, 5] [M]	peripheral vasodilator activity (compared with papaverine) [2]	antihypertensive activity [3]	also measured
CCCCCCCCNC(C)C(OC(=O)C1CC1)c1ccc(SC(C)C)cc1 (stereo not shown) [Compound 28]	< 1e-06	< 1e-06			
CCCCCCCCNC(C)C(OC(=O)CCCCC(=O)OC)c1ccc(SC(C)C)cc1 (stereo not shown) [Compound 31]	< 1e-06	< 1e-06			
CCCCCCCCNC(C)C(OC(=O)CCc1ccccc1)c1ccc(SC(C)C)cc1 (stereo not shown) [Compound 32]	< 1e-06	< 1e-06			
CCCCCCCCNC(C)C(OC(=O)Cc1ccccc1)c1ccc(SC(C)C)cc1 (stereo not shown) [Compound 34]				suitable antihypertensive activity	
CCCCCCCCNC(C)C(OC(=O)Cc1ccc(OC)cc1)c1ccc(SC(C)C)cc1 (stereo not shown) [Compound 35]				suitable antihypertensive activity	
CCCCCCCCNC(C)C(OC(=O)CC1CCCCC1)c1ccc(SC(C)C)cc1 (stereo not shown) [Compound 37]				suitable antihypertensive activity	
CC(=O)OC(c1ccc(SC(C)C)cc1)C(C)NCCCC(=O)c1ccc(F)cc1 (stereo not shown) [Compound 43]				suitable antihypertensive activity	
CCCCCCCCNC(C)C(O)c1ccc(OCC(C)C)cc1 (stereo not shown) [Compound 78]			at least equal to that of papaverine		IC50 [1, 6]: < 1e-06 M; IC50 [1, 7]: < 1e-06 M
CCCCCCNC(C)C(O)c1ccc(OCC(C)C)cc1 (stereo not shown) [Compound 79]			at least equal to that of papaverine		
CCCCCCCCNC(C)C(O)c1ccc(C(C)C)cc1 (stereo not shown) [Compound 81, 1-(4-isopropylphenyl)-2-n-octylamino-1-propanol]			at least equal to that of papaverine		IC50 [1, 6]: < 1e-06 M; IC50 [1, 7]: < 1e-06 M
CCCCCCCCCCCCNC(C)C(O)c1ccc(C(C)C)cc1 (stereo not shown) [Compound 82]			at least equal to that of papaverine		
CCCCCCNC(C)C(O)c1ccccc1 (stereo not shown) [Compound 83]			at least equal to that of papaverine		IC50 [1, 6]: < 1e-06 M; IC50 [1, 7]: < 1e-06 M
CCCCCCCCNC(C)C(O)c1ccc(Cl)cc1 (stereo not shown) [Compound 85]			at least equal to that of papaverine		IC50 [1, 6]: < 1e-06 M; IC50 [1, 7]: < 1e-06 M
CCCCCCCCCCCCNC(C)C(O)c1ccc(OC)cc1 (stereo not shown) [Compound 88]					IC50 [1, 6]: < 1e-06 M; IC50 [1, 7]: < 1e-06 M
CCCCCCCCNC(C)C(O)c1ccc(OCCCC)cc1 (stereo not shown) [Compound 91, 1-(4-butoxyphenyl)-2-n-octylamino-1-propanol]			at least equal to that of papaverine		IC50 [1, 6]: < 1e-06 M; IC50 [1, 7]: < 1e-06 M
CC(C)Oc1ccc(C(O)C(C)NCCCCc2ccccc2)cc1 (stereo not shown) [Compound 94, 1-(4-Isopropoxyphenyl)-2-(4-phenylbutylamino)-1-propanol]				suitable antihypertensive activity	
COc1ccc(Cc2nccc3cc(OC)c(OC)cc23)cc1OC [papaverine, reference compound]					IC50 [1, 6]: 3.16e-05 M; IC50 [1, 7]: 3e-05 M
COC(=O)[C@H]1[C@H]2C[C@@H]3c4[nH]c5cc(OC)ccc5c4CCN3C[C@H]2C[C@@H](OC(=O)c2cc(OC)c(OC)c(OC)c2)[C@@H]1OC [reserpine, reference compound]					antihypertensive effect (rating) ([3]; 3 mgr/kg): +++ (reduction of 30 to 50 mm Hg)
CC(N)(Cc1ccc(O)c(O)c1)C(=O)O (stereo not drawn) [α-methyldopa, reference compound]					antihypertensive effect (rating) ([3]; 100 mgr/kg): +++ (reduction of 30 to 50 mm Hg)

Reference: patent publication US4474977A, “Amino-alcohol derivatives” (Continental Pharma S.A., priority 1977, dated 1984)
